# How the values were obtained:
# Assay in all cases: Test E pre-/postemergence greenhouse test, plant response rating 0-100
# Format in all cases: in vivo
# corn (Zea mays) = details: scale 0 to 100; for Plant response rating, Corn: Postemergence; for Corn plant response rating: Preemergence
# Method in brief: (§1)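 Ratings (0 no effect to 100 complete control) came from visual comparison with untreated controls 14 to 21 days after treatment. Compounds in a surfactant-containing non-phytotoxic solvent were applied preemergence to seeded silt loam and postemergence to plants at the 1- to 4-leaf stage.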
# [1] = test system: field bindweed (Convolvulus arvensis); details: scale 0 to 100; for Plant response rating, Field Bindweed: Postemergence; for Field Bindweed plant response rating: Preemergence
# Method in brief: as §1
# [2] = test system: wild poinsettia (Euphorbia heterophylla); details: scale 0 to 100; for Plant response rating, Poinsettia, Wild: Postemergence; for Poinsettia, Wild plant response rating: Preemergence
# Method in brief: as §1
# [3] = test system: palmer pigweed (Amaranthus palmeri); details: scale 0 to 100; for Plant response rating, Pigweed, Palmer: Postemergence; for Pigweed, Palmer plant response rating: Preemergence
# Method in brief: as §1
# [4] = test system: sandbur (southern sandbur, Cenchrus echinatus); details: scale 0 to 100; for Plant response rating, Sandbur: Postemergence; for Sandbur plant response rating: Preemergence
# Method in brief: as §1
# [5] = test system: waterhemp (common waterhemp, Amaranthus rudis); details: scale 0 to 100; for Plant response rating, Waterhemp: Postemergence; for Waterhemp plant response rating: Preemergence
# Method in brief: as §1
# [6] = test system: arrowleaf sida (Sida rhombifolia); details: for Plant response rating, Arrowleaf Sida: Postemergence; for Arrowleaf Sida plant response rating: Preemergence
# Method in brief: as §1
# [7] = test system: hairy beggarticks (Bidens pilosa); details: scale 0 to 100; for Plant response rating, Beggarticks: Postemergence; for Beggarticks plant response rating: Preemergence
# Method in brief: as §1
# [8] = test system: Brazilian crabgrass (Digitaria horizontalis); details: scale 0 to 100; for Plant response rating, Crabgrass, Brazil: Postemergence; for Crabgrass, Brazil plant response rating: Preemergence
# Method in brief: as §1
# [9] = test system: Italian ryegrass (Lolium multiflorum); details: scale 0 to 100; for Plant response rating, Ryegrass, Italian: Postemergence; for Ryegrass, Italian plant response rating: Preemergence
# Method in brief: as §1
# [10] = test system: dayflower (Virginia (VA) dayflower, Commelina virginica); details: scale 0 to 100; for Plant response rating, Dayflower, VA: Postemergence; for Dayflower, VA plant response rating: Preemergence
# Method in brief: as §1
# [11] = test system: barnyardgrass (Echinochloa crus-galli); details: scale 0 to 100; for Plant response rating, Barnyardgrass: Postemergence; for Barnyardgrass plant response rating: Preemergence
# Method in brief: as §1
smiles,measurement,setting,value
O=Cn1cc(C(=O)c2ccccc2)c(-c2cc(Cl)cc(Cl)c2)n1 [Compound 28],"Plant response rating, Corn",corn (Zea mays); 31 g ai/ha,0
same,"Plant response rating, Corn",corn (Zea mays); 62 g ai/ha,0
same,"Plant response rating, Corn",corn (Zea mays); 125 g ai/ha,0
same,"Plant response rating, Corn",corn (Zea mays); 250 g ai/ha,0
same,"Plant response rating, Corn",corn (Zea mays); 500 g ai/ha,0
same,Corn plant response rating,corn (Zea mays); 31 g ai/ha,0
same,Corn plant response rating,corn (Zea mays); 62 g ai/ha,0
same,Corn plant response rating,corn (Zea mays); 125 g ai/ha,0
same,Corn plant response rating,corn (Zea mays); 250 g ai/ha,0
same,Corn plant response rating,corn (Zea mays); 500 g ai/ha,0
same,"Plant response rating, Field Bindweed",[1]; 31 g ai/ha,0
same,"Plant response rating, Field Bindweed",[1]; 62 g ai/ha,0
same,"Plant response rating, Field Bindweed",[1]; 125 g ai/ha,0
same,"Plant response rating, Field Bindweed",[1]; 250 g ai/ha,10
same,"Plant response rating, Field Bindweed",[1]; 500 g ai/ha,20
same,Field Bindweed plant response rating,[1]; 31 g ai/ha,0
same,Field Bindweed plant response rating,[1]; 62 g ai/ha,0
same,Field Bindweed plant response rating,[1]; 125 g ai/ha,0
same,Field Bindweed plant response rating,[1]; 250 g ai/ha,0
same,Field Bindweed plant response rating,[1]; 500 g ai/ha,0
same,"Plant response rating, Poinsettia, Wild",[2]; 31 g ai/ha,0
same,"Plant response rating, Poinsettia, Wild",[2]; 62 g ai/ha,0
same,"Plant response rating, Poinsettia, Wild",[2]; 125 g ai/ha,0
same,"Plant response rating, Poinsettia, Wild",[2]; 250 g ai/ha,10
same,"Plant response rating, Poinsettia, Wild",[2]; 500 g ai/ha,15
same,"Poinsettia, Wild plant response rating",[2]; 31 g ai/ha,0
same,"Poinsettia, Wild plant response rating",[2]; 62 g ai/ha,0
same,"Poinsettia, Wild plant response rating",[2]; 125 g ai/ha,0
same,"Poinsettia, Wild plant response rating",[2]; 250 g ai/ha,0
same,"Poinsettia, Wild plant response rating",[2]; 500 g ai/ha,0
same,"Plant response rating, Pigweed, Palmer",[3]; 31 g ai/ha,50
same,"Plant response rating, Pigweed, Palmer",[3]; 62 g ai/ha,70
same,"Plant response rating, Pigweed, Palmer",[3]; 125 g ai/ha,70
same,"Plant response rating, Pigweed, Palmer",[3]; 250 g ai/ha,80
same,"Plant response rating, Pigweed, Palmer",[3]; 500 g ai/ha,90
same,"Pigweed, Palmer plant response rating",[3]; 31 g ai/ha,0
same,"Pigweed, Palmer plant response rating",[3]; 62 g ai/ha,0
same,"Pigweed, Palmer plant response rating",[3]; 125 g ai/ha,0
same,"Pigweed, Palmer plant response rating",[3]; 250 g ai/ha,25
same,"Pigweed, Palmer plant response rating",[3]; 500 g ai/ha,100
same,"Plant response rating, Sandbur",[4]; 31 g ai/ha,0
same,"Plant response rating, Sandbur",[4]; 62 g ai/ha,0
same,"Plant response rating, Sandbur",[4]; 125 g ai/ha,0
same,"Plant response rating, Sandbur",[4]; 250 g ai/ha,0
same,"Plant response rating, Sandbur",[4]; 500 g ai/ha,0
same,Sandbur plant response rating,[4]; 31 g ai/ha,0
same,Sandbur plant response rating,[4]; 62 g ai/ha,0
same,Sandbur plant response rating,[4]; 125 g ai/ha,0
same,Sandbur plant response rating,[4]; 250 g ai/ha,0
same,Sandbur plant response rating,[4]; 500 g ai/ha,0
same,"Plant response rating, Waterhemp",[5]; 31 g ai/ha,80
same,"Plant response rating, Waterhemp",[5]; 62 g ai/ha,85
same,"Plant response rating, Waterhemp",[5]; 125 g ai/ha,85
same,"Plant response rating, Waterhemp",[5]; 250 g ai/ha,90
same,"Plant response rating, Waterhemp",[5]; 500 g ai/ha,90
same,Waterhemp plant response rating,[5]; 31 g ai/ha,0
same,Waterhemp plant response rating,[5]; 62 g ai/ha,0
same,Waterhemp plant response rating,[5]; 125 g ai/ha,65
same,Waterhemp plant response rating,[5]; 250 g ai/ha,95
same,Waterhemp plant response rating,[5]; 500 g ai/ha,95
same,"Plant response rating, Arrowleaf Sida","[6]; 31 g ai/ha, scale 0 to 100",65
same,"Plant response rating, Arrowleaf Sida","[6]; 62 g ai/ha, scale 0 to 100",60
same,"Plant response rating, Arrowleaf Sida","[6]; 125 g ai/ha, scale 0 to 100",75
same,"Plant response rating, Arrowleaf Sida","[6]; 250 g ai/ha, scale 0 to 100",85
same,"Plant response rating, Arrowleaf Sida","[6]; 500 g ai/ha, scale 0 to 100 (0 no effect, 100 complete control)",90
same,Arrowleaf Sida plant response rating,"[6]; 31 g ai/ha, scale 0 to 100",0
same,Arrowleaf Sida plant response rating,"[6]; 62 g ai/ha, scale 0 to 100",20
same,Arrowleaf Sida plant response rating,"[6]; 125 g ai/ha, scale 0 to 100",75
same,Arrowleaf Sida plant response rating,"[6]; 250 g ai/ha, scale 0 to 100",90
same,Arrowleaf Sida plant response rating,"[6]; 500 g ai/ha, scale 0 to 100",100
same,"Plant response rating, Beggarticks",[7]; 31 g ai/ha,80
same,"Plant response rating, Beggarticks",[7]; 62 g ai/ha,90
same,"Plant response rating, Beggarticks",[7]; 125 g ai/ha,95
same,"Plant response rating, Beggarticks",[7]; 250 g ai/ha,98
same,"Plant response rating, Beggarticks",[7]; 500 g ai/ha,98
same,Beggarticks plant response rating,[7]; 31 g ai/ha,0
same,Beggarticks plant response rating,[7]; 62 g ai/ha,0
same,Beggarticks plant response rating,[7]; 125 g ai/ha,40
same,Beggarticks plant response rating,[7]; 250 g ai/ha,70
same,Beggarticks plant response rating,[7]; 500 g ai/ha,70
same,"Plant response rating, Crabgrass, Brazil",[8]; 31 g ai/ha,0
same,"Plant response rating, Crabgrass, Brazil",[8]; 62 g ai/ha,0
same,"Plant response rating, Crabgrass, Brazil",[8]; 125 g ai/ha,0
same,"Plant response rating, Crabgrass, Brazil",[8]; 250 g ai/ha,0
same,"Plant response rating, Crabgrass, Brazil",[8]; 500 g ai/ha,0
same,"Crabgrass, Brazil plant response rating",[8]; 31 g ai/ha,0
same,"Crabgrass, Brazil plant response rating",[8]; 62 g ai/ha,0
same,"Crabgrass, Brazil plant response rating",[8]; 125 g ai/ha,0
same,"Crabgrass, Brazil plant response rating",[8]; 250 g ai/ha,35
same,"Crabgrass, Brazil plant response rating",[8]; 500 g ai/ha,65
same,"Plant response rating, Ryegrass, Italian",[9]; 31 g ai/ha,0
same,"Plant response rating, Ryegrass, Italian",[9]; 62 g ai/ha,0
same,"Plant response rating, Ryegrass, Italian",[9]; 125 g ai/ha,0
same,"Plant response rating, Ryegrass, Italian",[9]; 250 g ai/ha,0
same,"Plant response rating, Ryegrass, Italian",[9]; 500 g ai/ha,0
same,"Ryegrass, Italian plant response rating",[9]; 31 g ai/ha,0
same,"Ryegrass, Italian plant response rating",[9]; 62 g ai/ha,0
same,"Ryegrass, Italian plant response rating",[9]; 125 g ai/ha,0
same,"Ryegrass, Italian plant response rating",[9]; 250 g ai/ha,10
same,"Ryegrass, Italian plant response rating",[9]; 500 g ai/ha,20
same,"Plant response rating, Dayflower, VA",[10]; 31 g ai/ha,0
same,"Plant response rating, Dayflower, VA",[10]; 62 g ai/ha,0
same,"Plant response rating, Dayflower, VA",[10]; 125 g ai/ha,0
same,"Plant response rating, Dayflower, VA",[10]; 250 g ai/ha,0
same,"Plant response rating, Dayflower, VA",[10]; 500 g ai/ha,0
same,"Dayflower, VA plant response rating",[10]; 31 g ai/ha,0
same,"Dayflower, VA plant response rating",[10]; 62 g ai/ha,0
same,"Dayflower, VA plant response rating",[10]; 125 g ai/ha,0
same,"Dayflower, VA plant response rating",[10]; 250 g ai/ha,0
same,"Dayflower, VA plant response rating",[10]; 500 g ai/ha,0
same,"Plant response rating, Barnyardgrass",[11]; 31 g ai/ha,0
same,"Plant response rating, Barnyardgrass",[11]; 62 g ai/ha,0
same,"Plant response rating, Barnyardgrass",[11]; 125 g ai/ha,0
same,"Plant response rating, Barnyardgrass",[11]; 250 g ai/ha,0
same,"Plant response rating, Barnyardgrass",[11]; 500 g ai/ha,0
same,Barnyardgrass plant response rating,[11]; 31 g ai/ha,0
same,Barnyardgrass plant response rating,[11]; 62 g ai/ha,0
same,Barnyardgrass plant response rating,[11]; 125 g ai/ha,0
same,Barnyardgrass plant response rating,[11]; 250 g ai/ha,0
same,Barnyardgrass plant response rating,[11]; 500 g ai/ha,0

# Source: patent US10167262B2, “Herbicidal substituted 3-arylpyrazoles” (FMC CORPORATION, priority 2014, dated 2019)
